The subject of data set [1] is human bladder epithelial carcinoma cell-line T24 (ATCC HTB-4). The data set can be described thus: Sulforhodamine B (SRB) assay, T24 cells. The data set is classed as cell-based. The settings on record: 72 h treatment. As to the method:
(§1) A sulforhodamine B (SRB) assay-based approach was employed to determine the inhibitory concentration (IC)50 of paclitaxel formulations PLIP-003, PLIP-006, PLIP-021, and PLIP-023 against the human bladder epithelial carcinoma cell-lines T24 (ATCC® HTB-4™), 5637 (ATCC® HTB-9™) and HT-1376 (ATCC® CRL-1472™). For use in the assays, the paclitaxel formulations were redispersed in normal saline to a concentration of 2-5 mg/mL paclitaxel. The dispersed formulations formed clear solutions. Pure, unformulated, paclitaxel solution ([6 mg/100 μL] in DMSO) was used as a control formulation.
(§2) Cells were seeded onto 96-well plates at a density of 5×10^3 cells/well and cultured for 24 h at 37° C. and 5% CO2. The dispersed paclitaxel formulations and pure drug controls were added to the media of the plated cell cultures. […] Protein-bound SRB was detected by adding 100 μl 10 mM Tris base solution to each well, and allowing 5 to 10 minutes for Tris solution to solubilize SRB. The plates were read using a microplate reader at an absorbance of 565 nm. […]
(§3) Cells were seeded onto 96-well plates at a density of 5×10^3 cells/well and cultured for 24 h at 37° C. and 5% CO2. […] Protein-bound SRB was detected by adding 100 μl 10 mM Tris base solution to each well, and allowing 5 to 10 minutes for Tris solution to solubilize SRB. The plates were read using a microplate reader at an absorbance of 565 nm.
A general note: In SRB staining, fixed cells bind dye roughly in proportion to their protein.

Data set [2] in a line: Redispersion / dissolution in normal saline. The data set is classed as physicochemical. On the procedure:
as §1
A sulforhodamine B (SRB) assay-based approach was employed to determine the inhibitory concentration IC50 of cisplatin formulations PLIC-002 and PLIC-009 against the human bladder carcinoma epithelial cell-lines T24 (ATCC® HTB-4™), 5637 (ATCC® HTB-9™) and HT-1376 (ATCC® CRL-1472™). For use in the assays, the cisplatin formulations were redispersed in normal saline to a concentration 2 mg/mL cisplatin. The redispersed formulations formed clear solutions. Pure cisplatin solution 1 mg/mL in normal saline (unformulated) was used as a control. Higher concentrations of pure cisplatin were not used because cisplatin will not form a clear solution above 1 mg/mL in normal saline.

In data set [3] the test system is human bladder epithelial carcinoma cell-line 5637 (ATCC HTB-9). The data set can be described thus: Sulforhodamine B (SRB) assay, 5637 cells. As to conditions: 72 h treatment. The class given is cell-based. As to the method: as §1, §2, §3
Data set [4] relates to human bladder epithelial carcinoma cell-line HT-1376 (ATCC CRL-1472). Briefly: Sulforhodamine B (SRB) assay, HT-1376 cells. The settings on record: HT1376; cisplatin formulations; 72 h treatment. The data set is classed as cell-based. As to the method:
as §1, §2, §3

Data set [5] has as its system KU-7-GFP human bladder cancer. The data set can be described thus: KU-7-GFP human bladder cancer orthotopic mouse model, intravesical instillation. The data set is classed as in vivo, mice. As to the method: An orthotopic mouse model was utilized to evaluate a proliposomal formulation of paclitaxel. The bladder cancer cell line KU7/GFP clone 6 was used for these studies. The KU7/GFP clone 6 is stably transfected with the green-fluorescent protein, and these cell lines were used for all in vivo studies. The KU7/GFP clone 6 cell lines are described in Watanabe et al. The cells were grown in modified minimum essential medium supplemented with 10% FCS and incubated at 37° C. in 5% CO2. Tumors generated from KU7/GFP cells were generated […]. The tumors were implanted into the bladder of female mice. […] The foregoing formulations and saline were administered at day 0, day 7, and day 14 post-tumor implantation.
KU-7-GFP human bladder cancer orthotopic MetaMouse® model: The human bladder cancer cell line KU-7 expressing GFP was from the AntiCancer Inc. cell-line bank. The animals were transplanted by intravesical instillation using the KU-7-GFP bladder cancer cells. The animals were anesthetized with a mixture of ketamine, acepromazine and xylazine. The surgical area was sterilized using iodine and alcohol. After proper exposure of the bladder following a lower midline abdominal incision, the bladder was catheterized with a 24-G angiocatheter, drained and injured by a scratch with a needle in the bladder lining. KU-7-GFP (100 μl 2×10^6) cells were instilled into the bladder and a purse string was placed to occlude the urethra in order for the cells to be retained for 1 hour. The bladder was then returned to the abdominal cavity. The incision in the abdominal wall was closed with a 6-0 surgical suture in one layer. The animals were kept under isoflurane anesthesia during surgery. All procedures of the operation described above were performed under a 7× magnification microscope (Olympus). Animals were kept in a barrier facility under HEPA filtration.
On day 7 after tumor cell implantation, fifty animals were randomly divided into five groups (each treatment group contained n=10 mice) on day 7 after tumor implantation. Treatments in all groups for all mice were initiated on the same day, which was considered Study Day 0. Freshly reconstituted formulation (50 μL) was instilled intravesically using a 24 G/¾″ IV catheter, and the urethra was occluded using a purse string knot. The formulation was held in the bladder for a period of 1 h. After 1 h, the purse string was cut open, and the bladder was allowed to void naturally. The same procedure was followed on days 0, 7, 14 […].
In vitro human bladder cancer cell lines (T24, KU7) were used to assess IC50 values. In vivo studies were carried out in nude mice inoculated with KU7-GFP cell-lines. After KU7 bladder tumor inoculation, weekly (×3) intravesical instillations (3 groups: PLIP; PTX/DMSO or PTX/Nab; or saline) were delivered and tumor growth measured. Pharmacokinetic studies were carried out in rat species. A GLP compliant acute-expanded toxicology/toxicokinetics study in rat species was also performed.

[6] abbreviates: 5.0 mg/kg, nude mice KU7-GFP, weekly intravesical instillations.
The mark [7] stands for this setting: 5.0 mg/kg, nude mice KU7-GFP, weekly intravesical instillations, * p < 0.05 vs saline.

SMILES strings stand for the structures. “And” between values parts separate entries of the source, which are not always exact repeats. Equal entries are not always repeated. Where two headings read alike, the source gives them in different places.

One may read the IC50 as the concentration that gives 50% inhibition. In the case of `N.N.[Cl][Pt][Cl]` [Pure drug, Cis-diamminedichloroplatinum(II)], the IC50 is 0.788 µg/mL in data set [1] (cisplatin formulations), 0.441 µg/mL in data set [3] (cisplatin formulations) and 1.11 µg/mL in data set [4]. Also, the “highest concentration forming a clear solution in normal saline” value in data set [2] is given as ≤ 1 mg/mL.

On to `CC(=O)O[C@H]1C(=O)[C@@]2(C)[C@H]([C@H](OC(=O)c3ccccc3)[C@]3(O)C[C@H](OC(=O)[C@H](O)[C@@H](NC(=O)c4ccccc4)c4ccccc4)C(C)=C1C3(C)C)[C@]1(OC(C)=O)CO[C@@H]1C[C@@H]2O` [Paclitaxel in DMSO, Paclitaxel], for which, in data set [5] (setting [6]), the “Bladder Size” value is 13 mm^2 and the “Tumor Size” value came out at 0.05 mm^2. Moreover, in data set [5] (setting [7]), the “% Bladder Overtaken by Tumor” value is recorded as 10%* and the “% Complete Response” value is listed as 25% (1/4). Besides, the “Final tumor area, measured by fluorescent method” value in data set [5] (Groups 3 and 4, title says Study Design 2, two weeks, five groups as in Study Design 1 (5 mg/kg once a week), individual mice, listed as PTX in DMSO, 5 mg/kg) is 16.39 mm^2 and 5.37 mm^2 and 15.96 mm^2. The “Final tumor area, measured by fluorescent method, mean” value in data set [5] (Groups 3 and 4, title says Study Design 2, two weeks, five groups as in Study Design 1 (5 mg/kg once a week), mean) is 12.58 mm^2. For the same molecule, the IC50 in data set [1] (Homo sapiens, T-24, paclitaxel formulations, read-out: IC50) was < 0.1 µg/mL. Moreover, in data set [3] (Homo sapiens, paclitaxel formulations, read-out: IC50), the IC50 is < 0.1 µg/mL.

For the origin of these results see patent US11229602B2, “Formulations for treating bladder cancer” (priority 2016, dated 2022).
